Patent EP4516309A1, “CRHR1 AGONISTS FOR USE IN THE TREATMENT OF SOCIAL ANXIETY DISORDERS” (Consejo Superior de Investigaciones Cientificas, priority 2023, dated 2025)

Target: T1, inhibitory DREADD (Homo sapiens, UniProt P08173, A203G/Y113C)
T1 construct: host or cells: ILA CRH+ neurons of CRH-Cre mice, Cre-dependent AAV2/8 transduction in vivo
T1 sequence (P08173 1-479 Y113C/A203G): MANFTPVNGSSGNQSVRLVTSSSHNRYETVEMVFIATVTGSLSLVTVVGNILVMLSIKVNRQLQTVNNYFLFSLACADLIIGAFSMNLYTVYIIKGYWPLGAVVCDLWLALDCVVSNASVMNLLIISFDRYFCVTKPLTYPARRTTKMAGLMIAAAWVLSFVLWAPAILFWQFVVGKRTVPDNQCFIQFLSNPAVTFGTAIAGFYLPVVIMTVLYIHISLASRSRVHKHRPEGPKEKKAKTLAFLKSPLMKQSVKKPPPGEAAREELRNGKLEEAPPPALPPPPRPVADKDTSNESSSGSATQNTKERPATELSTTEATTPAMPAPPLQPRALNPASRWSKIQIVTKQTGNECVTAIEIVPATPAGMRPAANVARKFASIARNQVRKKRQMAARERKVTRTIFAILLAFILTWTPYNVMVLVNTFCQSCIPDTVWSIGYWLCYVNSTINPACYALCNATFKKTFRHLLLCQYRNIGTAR
Assay: c-fos / mCherry overlap in ILA after familiar animal presentation, inhibitory DREADD
Assay type: in vivo, CRH-Cre mice
Settings: CNO i.p. 30 min before familiar animal presentation; vs. saline
Experimental: Mice were anesthetized using isoflurane then perfused in the heart with 10 mL saline and their brains were quickly extracted and incubated in 4% PFA overnight. After 1 h washing in PBS, 60 µm slices were prepared using a Leica VT1000S vibratome (Leica Biosystems). Unless indicated otherwise, slices were permeabilized for 2h in PBS with 0.5% Triton-X100 (T9284, Sigma-Aldrich) in PBS before being incubated overnight at 4°C with primary antibodies diluted in PBS with 0.5% Triton-X in PBS. The slices were washed in PBS for 1 h then incubated overnight at 4°C with secondary antibodies from Thermo-Fisher Scientific at a concentration of 1:500 diluted in PBS with 0.1% Triton-X. Hoechst counterstain was applied (Hoechst 33342 at 1:1000 for 30 min in PBS at RT) prior to mounting the slice using fluoromount (Sigma-Aldrich). Images were acquired using inverted confocal microscopes (Ism 900, Zeiss and SPII, Leica) or an epifluorescent microscope (Thunder, Leica). For post-hoc immunocytochemistry after patch-clamp recordings, slices were fixed for 1 h in PBS with 4% PFA and streptavidin was applied during secondary incubation. • For mRuby and GFP labelling, primary incubation was performed overnight at 4°C with rabbit anti-RFP (1:500, Rockland Antibody, #600-401-379) and chicken anti-GFP (1:1000, Aves, #GFP-1020) antibodies. […]

## C[N+]1([O-])CCN(C2=Nc3cc(Cl)ccc3Nc3ccccc32)CC1 [CNO, clozapine N-oxide]
  c-fos/mCherry+ cells in ILA: less c-fos/mCherry+ cells compared to the saline control
